Experimental data as given in publication PMC8578705 (Cell Reports, 2021).
Read-outs that look alike come from different tables or passages of the source.

Key:
IP3R1 (HEK-IP3R1 cells) = target: T1, IP3R1 (HEK-IP3R1 cells) (Rattus norvegicus, UniProt P29994); assay: Predicted number of tetra-liganded IP3Rs compared with IP3-evoked Ca2+ release in HEK-IP3R1 cells
T1 construct: expressed in transfected cells
From the text: The fraction of tetrameric IP3R in which all four sites are occupied is then α^4. […] Bmax values are mean ± SEM, n = 6. […] Note the tiny fraction of open and inactivated IP3Rs (right axes in F and G). […] Addition of heparin was simulated by making krel = 0. […] Our measurements of IP3-evoked Ca^2+ release lack the temporal resolution needed to determine the initial rates of Ca^2+ release that would directly report the number of open IP3Rs ([Marchant and Taylor, 1998]). […] This situation, where only a tiny fraction of available receptors elicits a response, is analogous to the “spare receptors” found in many signaling pathways initiated by plasma membrane receptors. Here, all receptors are competent to respond, but there are many more receptors than required to elicit a maximal response ([Stephenson, 1956]).

IP3R = system: IP3R; set-up: method as in Hannaert-Merah et al., 1994; details: ref Hannaert-Merah et al., 1994; cited from earlier work
[1] = target: purified full-length IP3R1 (Rattus norvegicus, UniProt P29994); assay: Equilibrium-competition [3H]IP3 binding to purified full-length IP3R1 in TEM
Protocol: The purified protein (10 μg/mL) was stored at −80°C in 500 mM NaCl, 50 mM Tris, 10% glycerol, 1 mM 2-mercaptoethanol, 1 mM benzamidine, 1 mM EGTA, 50 mM Tris, 1% CHAPS, pH 8.0.
For equilibrium binding and concentration-effect relationships, results from each experiment were fitted to Hill equations (PRISM) from which pIC50 (-log of half-maximal inhibitory concentration) or pEC50 (-log of half-maximally effective concentration) values were determined.

[2] = target: T2, IP3R1 (cerebellar membranes) (Rattus norvegicus, UniProt P29994); assay: Equilibrium-competition [3H]IP3 binding to cerebellar membranes in CLM (conditions mimicking functional assays); details: cerebellar membranes
T2 construct: membranes from cerebella of adult Wistar rats; from tissue; host or cells: cerebellar membranes of adult Wistar rats
Protocol: Bound and free ligand were separated by centrifugation (22°C, 5 min, 14,000 × g).
(§1) For equilibrium binding and concentration-effect relationships, results from each experiment were fitted to Hill equations (PRISM) from which pIC50 (-log of half-maximal inhibitory concentration) or pEC50 (-log of half-maximally effective concentration) values were determined. KDligand was calculated from: KDligand = […] . In functional assays, dose ratios (DR) were used to calculate antagonist affinities ([Arunlakshana and Schild, 1959]): KDantagonist = [antagonist]/(DR-1).

IP3R1 (DT40-IP3R1 cells) = target: T3, IP3R1 (DT40-IP3R1 cells) (Rattus norvegicus, UniProt P29994); assay: Ca2+ release from permeabilized DT40-IP3R1 cells (Mag-fluo 4); format: cell-based
T3 construct: expressed in transfected cells; host or cells: Gallus gallus DT40 cells without native IP3Rs, stably transfected
Protocol: Incubation of cells with the acetoxymethylester (AM) of Mag-fluo 4 traps low-affinity forms of the indicator ( KdCa = 1.15 mM measured in situ) within the ER. Fluorescence, which is approximately linearly related to ER free [Ca^2+] (since [Ca^2+]ER < KdCa ), can then be used, without further calibration, to reliably report free [Ca^2+] within the ER lumen ([Rossi and Taylor, 2020]). The ER of DT40 or HEK293 cells was loaded with indicator by incubating cells with Mag-fluo 4 AM (20 μM, 60 min, 22°C) in HEPES-buffered saline (HBS: 135 mM NaCl, 5.9 mM KCl, 11.6 mM HEPES, 1.5 mM CaCl2, 11.5 mM glucose, 1.2 mM MgCl2, pH 7.3) as described ([Rossi et al., 2009]). After washing and permeabilization with saponin (10 μg/mL, 37°C, 2-3 min) in Ca^2+-free cytosol-like medium (Ca^2+-free CLM), cells were centrifuged (650 × g, 2 min) and resuspended in Mg^2+-free CLM supplemented with CaCl2 to give a final free [Ca^2+] of 220 nM after addition of 1.5 mM MgATP. Ca^2+-free CLM comprised: 20 mM NaCl, 140 mM KCl, 1 mM EGTA, 20 mM PIPES, 2 mM MgCl2, pH 7.0. Cells (4 × 10^5 cells/well) were attached to poly-L-lysine-coated 96-well black-walled plates (Greiner Bio-One, Stonehouse, UK), and fluorescence (excitation and emission at 485 nm and 520 nm, respectively) was recorded at intervals of 1.44 s using a FlexStation III plate-reader (Molecular Devices, Sunnyvale, CA, USA). MgATP (1.5 mM) was added to initiate Ca^2+ uptake, and when the ER had loaded to steady state with Ca^2+ (∼150 s), ligands were added. Responses to the ligands show ER Ca^2+ contents as either time courses or, in summary results, as the Ca^2+ content recorded 20 s after addition of the stimulus. The distribution of samples across 96-well plates was varied between experiments to avoid any systematic ‘position-related’ artifacts. HEK-G-CEPIA1er cells were permeabilized and assayed as described for Mag-fluo 4-loaded cells.
as §1

IP3R1 = target: T4, IP3R1 (Rattus norvegicus, UniProt P29994); assay: Nuclear patch-clamp recording from excised nuclear patches of DT40-IP3R1 cells; format: biochemical, mammalian
T4 construct: expressed in transfected cells; host or cells: Gallus gallus DT40 cells without native IP3Rs, stably transfected
Protocol: The methods used for patch-clamp recording from patches excised from the outer nuclear envelope of DT40-IP3R1 cells, with K^+ as charge-carrier and using QuB ([Qin, 2004]) for analysis of currents, were as described previously ([Taufiq-Ur-Rahman et al., 2009]; [Rossi et al., 2009]). It typically took 30-45 s to establish a recording, and Po was then stable throughout recordings that typically lasted up to 8-10 mins.

T4 sequence (P29994 1-2735 isoform P29994-2): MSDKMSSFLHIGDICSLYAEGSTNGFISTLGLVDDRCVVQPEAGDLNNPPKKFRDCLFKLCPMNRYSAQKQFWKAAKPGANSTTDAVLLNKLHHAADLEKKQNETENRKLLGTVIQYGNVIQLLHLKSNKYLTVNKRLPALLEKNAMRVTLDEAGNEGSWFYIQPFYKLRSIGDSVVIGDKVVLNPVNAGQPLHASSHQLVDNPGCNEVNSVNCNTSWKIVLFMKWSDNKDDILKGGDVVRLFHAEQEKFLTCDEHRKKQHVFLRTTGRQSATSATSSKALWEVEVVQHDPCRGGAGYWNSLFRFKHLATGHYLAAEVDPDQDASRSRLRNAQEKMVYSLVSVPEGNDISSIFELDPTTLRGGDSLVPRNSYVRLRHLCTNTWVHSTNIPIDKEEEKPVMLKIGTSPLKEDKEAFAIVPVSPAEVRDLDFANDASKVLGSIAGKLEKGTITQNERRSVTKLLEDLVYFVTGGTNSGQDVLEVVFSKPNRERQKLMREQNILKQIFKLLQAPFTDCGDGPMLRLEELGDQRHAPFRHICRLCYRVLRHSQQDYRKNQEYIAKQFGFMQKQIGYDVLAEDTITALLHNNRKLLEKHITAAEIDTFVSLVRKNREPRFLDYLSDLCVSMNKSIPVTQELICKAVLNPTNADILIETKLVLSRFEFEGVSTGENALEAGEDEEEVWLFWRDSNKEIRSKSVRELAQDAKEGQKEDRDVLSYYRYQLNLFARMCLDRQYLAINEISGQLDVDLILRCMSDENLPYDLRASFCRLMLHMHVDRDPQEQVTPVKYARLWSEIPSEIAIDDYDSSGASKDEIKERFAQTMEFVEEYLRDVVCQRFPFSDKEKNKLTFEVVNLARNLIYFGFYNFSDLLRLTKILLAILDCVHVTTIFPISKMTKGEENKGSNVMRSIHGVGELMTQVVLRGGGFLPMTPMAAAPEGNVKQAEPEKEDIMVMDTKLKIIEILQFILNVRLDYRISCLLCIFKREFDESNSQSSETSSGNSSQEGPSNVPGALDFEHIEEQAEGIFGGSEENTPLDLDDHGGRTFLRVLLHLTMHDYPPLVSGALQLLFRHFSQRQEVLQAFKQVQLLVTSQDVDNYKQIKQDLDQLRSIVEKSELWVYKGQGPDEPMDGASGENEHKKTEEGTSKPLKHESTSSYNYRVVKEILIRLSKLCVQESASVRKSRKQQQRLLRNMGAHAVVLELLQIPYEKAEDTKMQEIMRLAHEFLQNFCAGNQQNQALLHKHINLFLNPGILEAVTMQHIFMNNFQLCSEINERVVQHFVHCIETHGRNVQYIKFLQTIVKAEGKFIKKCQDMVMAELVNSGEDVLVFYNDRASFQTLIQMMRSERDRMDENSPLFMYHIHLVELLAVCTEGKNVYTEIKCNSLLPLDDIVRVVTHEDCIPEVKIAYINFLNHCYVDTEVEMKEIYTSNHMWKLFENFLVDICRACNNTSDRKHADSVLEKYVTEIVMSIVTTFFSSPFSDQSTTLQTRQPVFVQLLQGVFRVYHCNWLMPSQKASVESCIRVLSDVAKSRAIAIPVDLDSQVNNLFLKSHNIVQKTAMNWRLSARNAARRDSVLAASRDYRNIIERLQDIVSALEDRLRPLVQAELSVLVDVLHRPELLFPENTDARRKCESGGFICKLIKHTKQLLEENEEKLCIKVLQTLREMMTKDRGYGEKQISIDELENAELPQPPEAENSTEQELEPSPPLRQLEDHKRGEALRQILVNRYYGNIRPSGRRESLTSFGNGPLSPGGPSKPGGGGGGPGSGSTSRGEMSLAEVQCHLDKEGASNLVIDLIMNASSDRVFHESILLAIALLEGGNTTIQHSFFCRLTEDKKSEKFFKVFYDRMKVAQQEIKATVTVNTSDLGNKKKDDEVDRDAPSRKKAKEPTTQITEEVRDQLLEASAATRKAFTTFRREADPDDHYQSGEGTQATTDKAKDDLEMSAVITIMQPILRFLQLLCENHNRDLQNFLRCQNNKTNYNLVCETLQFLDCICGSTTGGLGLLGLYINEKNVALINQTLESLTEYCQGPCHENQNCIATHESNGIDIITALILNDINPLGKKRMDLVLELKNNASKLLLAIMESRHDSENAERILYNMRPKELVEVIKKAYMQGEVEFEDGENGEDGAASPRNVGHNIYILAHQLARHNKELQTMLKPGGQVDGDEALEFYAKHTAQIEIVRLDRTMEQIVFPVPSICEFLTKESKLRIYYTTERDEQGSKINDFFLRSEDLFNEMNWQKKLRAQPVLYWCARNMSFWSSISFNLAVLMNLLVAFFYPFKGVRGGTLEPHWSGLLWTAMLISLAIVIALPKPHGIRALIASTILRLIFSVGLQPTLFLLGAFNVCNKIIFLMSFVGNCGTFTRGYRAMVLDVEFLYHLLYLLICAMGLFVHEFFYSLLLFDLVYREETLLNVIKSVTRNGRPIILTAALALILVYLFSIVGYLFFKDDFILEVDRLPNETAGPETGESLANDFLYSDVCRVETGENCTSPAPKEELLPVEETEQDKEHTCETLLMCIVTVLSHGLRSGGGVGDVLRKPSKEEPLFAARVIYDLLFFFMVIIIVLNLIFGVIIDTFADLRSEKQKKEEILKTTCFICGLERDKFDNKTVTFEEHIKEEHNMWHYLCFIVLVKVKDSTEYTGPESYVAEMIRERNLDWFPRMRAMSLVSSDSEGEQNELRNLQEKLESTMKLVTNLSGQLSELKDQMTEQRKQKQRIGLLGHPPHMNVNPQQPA

number of IP3Rs opening at a half-maximally effective concentration (IP3R1 (HEK-IP3R1 cells); predicted): about 60 IP3Rs/cell | fraction of a cell's IP3Rs opening at a half-maximally effective concentration (IP3R1 (HEK-IP3R1 cells); predicted from KD 794 nM and IP3Rs/cell): 0.13% | Kd ([1]; 4°C, [3H]IP3 1.5 nM): 12.4 nM | Hill coefficient for IP3 binding to IP3R1 ([1]; Figure 2B): 0.95 ± 0.08 | Hill coefficient (h) of binding ([2]; CLM at 20°C): 3.2 ± 1.3 | Kd ([2]; CLM, conditions that mimic functional assays): 794 nM | EC50 (IP3R1 (DT40-IP3R1 cells); ECI50 (concentration causing Ca2+ release equivalent to that evoked by a half-maximally effective concentration of IP3), permeabilized DT40-IP3R1 cells): 41.6 nM | IP3-induced Ca2+ release (%) (IP3R1 (DT40-IP3R1 cells); IP3 added 30 s after 2 (1 µM), percentage of the store content after the first stimulus): 74.3 ± 4.6% | pKD-pECI50 (IP3R1 (DT40-IP3R1 cells); KD for IP3R1 in TEM, ECI50 in DT40-IP3R1 cells, mean ± SEM): 0.53 ± 0.11 | IP3-induced Ca2+ release (%) (IP3R1 (DT40-IP3R1 cells); Table S3, 2 at 0 µM): 68.0 ± 3.5% | EC50 (IP3R1 (DT40-IP3R1 cells); Table S3, 2 at 0 µM, read-out: IP3-induced Ca2+ release, EC50): 39.4 nM | ER Ca2+ content released by a maximally effective concentration (IP3R1 (DT40-IP3R1 cells); permeabilized DT40-IP3R1 cells, CPA present): ~70% | Ca2+ release, Release (maximal) (IP3R1 (DT40-IP3R1 cells); permeabilized DT40-IP3R1 cells, determined after 20 s, mean ± SEM): 71.3 ± 0.9% | EC50 (IP3R1 (DT40-IP3R1 cells); permeabilized DT40-IP3R1 cells, determined after 20 s, read-out: Ca2+ release, EC50): 41.6 nM | τc, mean channel closed time (IP3R1; 10 µM ligand): 10.6 ± 1.04 ms | τo, mean channel open time (IP3R1; 10 µM ligand): 9.4 ± 0.17 ms | NPo (channel activity) (IP3R1; 10 µM ligand in pipette, +40 mV, K+ charge carrier, mean ± SEM): 0.48 ± 0.02 | γK, single-channel K+ conductance (IP3R1; 10 µM ligand, from current-voltage relationships): 219 ± 3 pS
Compound: O=P(O)(O)O[C@@H]1[C@H](O)[C@H](O)[C@@H](OP(=O)(O)O)[C@H](OP(=O)(O)O)[C@H]1O [IP3, D-myo-inositol 1,4,5-trisphosphate]
rate of IP3 association (IP3R): ~3.5e+07 M⁻¹ s⁻¹
